# *1 amine or outer side, *2 acyl side, *3 side chain or, on linkers, in order; H or OH if unused. Where a SMILES comes first, the peptide text is derived from it. Bridges are numbered along the chain shown (N, C = ends). Roman numbers before positions name the chains, in order. Side-chain parts run from the residue outwards. The star is where a group is joined. γGlu = O=C(O)[C@H](CCC(=O)[*:2])N[*:1]; Palmitoyl = CCCCCCCCCCCCCCCC(=O)*
# Key:
# [1] = tested on: various cancer cell lines; assay: In vitro anticancer effect of C16 fatty acid-binding peptides in various cancer cells; type: cell-based; settings: for GI50 values compared with control (ACP52C): 48 hours after treatment; for cancer cell-specific cell death: compared with control ACP52C
# Method: The anticancer effect of the CP2c-targeting peptide-fatty acid conjugate synthesized in Preparation Example 2 was analyzed in various cancer cells.
# normal cell line = assay: Cell growth analysis in normal cell line; type: cell-based
# Description: FIGS. 10a to 10g illustrate cell growth analysis results dependent upon treatment with ACP52CGK (=γC16-ACP52 cm) in normal cell lines (BEAS2B and hMSC) and cancer cell lines (Hep3B, Hs746T, Caov-3, MDA-MB-231, U343, HCT116, PANC1, PC3, A549, and THP-1).
# Hep3B xenograft mice = type: in vivo
# Method: To analyze the anticancer efficacy of the CP2c target peptide-fatty acid conjugates synthesized in Preparation Example 2 in animal models, ACP52CG and ACP52CK were injected into the Hep3B xenograft mice via tail vein 5 times at 3-day intervals.
# ACP52CGK was injected into the Hep3B xenograft mice via tail vein at 3 different concentrations (1.39, 2.77, or 5.54 mg/kg) 5 times at 3-day intervals. The tumor volume was measured at every three days after drug injection. The tumor and major tissues were excised from the mice sacrificed on the 24th day after the tumor cell injection. The tumor was weighed and fixed with 4% formaldehyde together with major organs. After making tissue slides through paraffin sections, hematoxylin/eosin staining was performed. The collected blood samples were subjected to basic CBC analysis using a Coulter LH 750 hematology analyzer. The acquired data were statistically processed using an Excel program.
# ACP52CGK was injected into Hep3B xenograft mice via tail vein 5 times at intervals of 5 days at 3 different concentrations (1.39, 2.77, 5.54 mg/kg), and the anticancer effect was evaluated in the same manner as described above. […] As a result of a comprehensive analysis of all the results, 2.77 mg/kg was the optimal concentration.
# [2] = tested on: MDA-MB-231 (LM1) xenograft mice; type: in vivo; settings: for anticancer effect: tail vein 5 times at 3-day intervals
# Method: The anticancer effect of ACP52CGK was analyzed in MDA-MB-231 (LM1) xenograft mice in the same manner as in the Hep3B xenograft mouse model experiments.
# [3] = ELISA for antibody formation in sera of injected rabbits (immunogenicity); settings: rabbit, in vivo
# Description: To verify this, immunogenicity of ACP52CG and ACP52CK was directly tested in the process of deriving the final new drug candidate. Since the final candidate material might be a C-16 palmitoyl acid-conjugated ACP52C peptide, which is not different with ACP52CG and ACP52CK in terms of chemical composition, it was decided to analyze whether antibodies were formed on ACP52CG and ACP52CK. […] Therefore, it was concluded that the final candidate material (ACP52CGK) would also not show immunogenicity in the human body (FIG. 21).
# [4] = Repeated toxicity test of ACP52CGK, 28 days, female and male mice; type: in vivo, mouse; settings: 100 mg/kg
# Method: A repeated toxicity test for the in vivo administration of ACP52CGK was conducted using female and male mice. […] As a full-scale experiment, after intravenous infusion of ACP52CGK for 28 days at 3-day intervals into the solvent group and high-dose group (100 mg/Kg) of 6 males and females each, the weight change, drinking water intake, and main histological analysis of organs, organ weight, hematological tests and blood biochemical tests were analyzed.
# [5] = tested on: cells primary cultured from PDX (patient derived xenograft) tumor tissue; assay: Efficacy in cells primary cultured from PDX tumor tissue; type: cell-based
# [6] = In vivo half-life by live imaging of Cy5-labeled peptide fluorescence in the mouse body; settings: whole body (mouse body, live imaging), intravenous
# Method: To analyze the in vivo half-life of ACP52CGK, Cy5-labeled ACP52CGK was injected into the tail vein of the mouse, and then the fluorescence intensity remaining in the mouse body was measured over time by live imaging process.
# [7] = tested on: liver cancer induced by DEN treatment; assay: Liver cancer mouse model induced by DEN treatment; type: in vivo; settings: for efficacy: mice 15 weeks after DEN treatment
# Method: In addition, […] (7 to 8 mice/group), such as a control group (mock) treated with only a vehicle, a sorafenib group (an approved drug for liver cancer treatment), and an ACP52CG-GFLGE (SEQ ID NO: 16) (ACP52CK) group. The drug was injected through the tail vein a total of 12 times at a concentration of 5 mg/kg at 3-day intervals.
# caspase2 = assay: Immunoblot of MDM2p90 and MDM2p60 after caspase2 inhibitor treatment; type: cell-based; settings: lung cancer cells
# Method: Meanwhile, when a caspase2 inhibitor (AC-VDVAD (SEQ ID NO: 11)-CHO) was treated to identify a phenomenon that occurs due to the high activity of caspase2 specifically in lung cancer cells, it was found by immunoblot that the protein amount of MDM2p90 increased, while the protein amount of MDM2p60 decreased according to the treatment with the Caspase2 inhibitor. Therefore, we concluded that the MDM2p60 form, which is overexpressed in lung cancer cells, is the result of cleavage of MDM2p90 by caspase2. […] As a result, efficacy was observed around GI50˜1 μM in the group treated with the combination of the caspase 2 inhibitor and ACP52C (FIGS. 34a to 34d, FIG. 35).
# [8] = tail vein 5 times at 3-day intervals
compound,measurement,setting,value
CCCCCCCCCCCCCCCC(=O)N[C@@H](CCC(=O)NCCCC[C@H](NC(=O)CNC(=O)CNC(=O)[C@@H]1CCCN1C(=O)[C@H](CCCNC(=N)N)NC(=O)[C@H](CCC(N)=O)NC(=O)[C@@H]1CCCN1C(=O)[C@H](Cc1ccc(O)cc1)NC(=O)[C@H](CC(N)=O)NC(C)=O)C(=O)NCC(=O)NCC(=O)N[C@@H](CS)C(=O)N[C@@H](CCCNC(=N)N)C(=O)NCC(=O)N[C@@H](CC(=O)O)C(=O)N[C@@H](CCCCN)C(=O)NCC(=O)N1CCC[C@H]1C(=O)N[C@@H](CC(=O)O)C(=O)N[C@@H](CS)C(N)=O)C(=O)O [ACP52CGK] (Ac-NYPQRPGGK([γGlu-Palmitoyl])GGCRGDKGPDC-NH2),GI50 values compared with control (ACP52C),[1],like or more efficient than that of the control
same,cancer cell-specific cell death,[1],induced cancer cell-specific cell death similarly to the control group
same,effect on normal cells,normal cell line,no significant effect on normal cells
same,tumor inhibition and metastasis inhibition effects,"Hep3B xenograft mice; 1.39, 2.77, 5.54 mg/kg, tail vein 5 times at intervals of 5 days",tumor inhibition and metastasis inhibition effects superior to the sorafenib and ACP52C treatment groups
same,tumor metastasis inhibition effect (tumor area metastasized to the lung),"Hep3B xenograft mice; 1.39, 2.77, or 5.54 mg/kg, 5 times at 3-day intervals",superior to ACP52C in the tumor metastasis inhibition effect
same,tumor suppressive effect,"Hep3B xenograft mice; 1.39, 2.77, or 5.54 mg/kg, tail vein 5 times at 3-day intervals",tumor suppressive effect similar to that of ACP52C
same,optimal concentration,Hep3B xenograft mice; comprehensive analysis of 3-day and 5-day interval results,2.77 mg/kg
same,tumor suppression and metastasis inhibition effects,"[2]; 1.39, 2.77, or 5.54 mg/kg, 3-day and 5-day intervals",superior to those of the sorafenib and ACP52C-treated groups
same,optimal concentration,"[2]; mouse, in vivo",2.77 mg/kg
same,immune response of sera from rabbits injected with ACP52CG and ACP52CK three times (ELISA),[3],did not induce immune responses
same,"Relative organ weight, Kidney",[4]; female mice,1.34 ± 0.06%
same,"Relative organ weight, Kidney",[4]; male mice,1.50 ± 0.08%
same,"Absolute organ weight, Epididymis","[4]; mouse, in vivo",0.0482 ± 0.0127 g
same,"Absolute organ weight, Ovary","[4]; mouse, in vivo",0.0059 ± 0.0012 g
same,"Absolute organ weight, Testis","[4]; mouse, in vivo",0.1693 ± 0.0169 g
same,"Absolute organ weight, Uterus","[4]; mouse, in vivo",0.0638 ± 0.0227 g
same,"Relative organ weight, Epididymis","[4]; mouse, in vivo",0.24 ± 0.07%
same,"Relative organ weight, Ovary","[4]; mouse, in vivo",0.0326 ± 0.0054%
same,"Relative organ weight, Testis","[4]; mouse, in vivo",0.83 ± 0.08%
same,"Relative organ weight, Uterus","[4]; mouse, in vivo",0.35 ± 0.12%
same,sensitivity across PDX generations,"[5]; cells derived from the same origin, each generation",not significantly different
same,resistance,[5]; primarily cultured cells from some PDX tumor tissues,showed resistance
same,half-life,[6],~20.2 h
CCCCCCCCCCCCCCCC(=O)N[C@@H](CCC(=O)O)C(=O)NCCCC[C@H](NC(C)=O)C(=O)NCC(=O)NCC(=O)N[C@@H](CC(N)=O)C(=O)N[C@@H](Cc1ccc(O)cc1)C(=O)N1CCC[C@H]1C(=O)N[C@@H](CCC(N)=O)C(=O)N[C@@H](CCCNC(=N)N)C(=O)N1CCC[C@H]1C(=O)N[C@@H](CS)C(=O)N[C@@H](CCCNC(=N)N)C(=O)NCC(=O)N[C@@H](CC(=O)O)C(=O)N[C@@H](CCCCN)C(=O)NCC(=O)N1CCC[C@H]1C(=O)N[C@@H](CC(=O)O)C(=O)N[C@@H](CS)C(N)=O [ACP52CG] (Ac-K([Glu-Palmitoyl])GGNYPQRPCRGDKGPDC-NH2),GI50 values compared with control (ACP52C),[1],like or more efficient than that of the control
same,cancer cell-specific cell death,[1],induced cancer cell-specific cell death similarly to the control group
same,anticancer efficacy,Hep3B xenograft mice; [8],"showed similar efficacy to sorafenib, but their efficacy was inferior to that of ACP52C"
same,efficacy,[7],"superior to another control, FQI1, but did not show any superior efficacy compared to ACP52C"
same,anticancer effect,[2],"showed tumor regression efficacy, but the anticancer effect was not significant"
same,immune response of sera from rabbits injected with ACP52CG and ACP52CK three times (ELISA),[3],did not induce immune responses
CCCCCCCCCCCCCCCC(=O)NCC(=O)N[C@@H](Cc1ccccc1)C(=O)N[C@@H](CC(C)C)C(=O)NCC(=O)N[C@@H](CCC(=O)O)C(=O)NCCCC[C@H](NC(C)=O)C(=O)NCC(=O)NCC(=O)N[C@@H](CC(N)=O)C(=O)N[C@@H](Cc1ccc(O)cc1)C(=O)N1CCC[C@H]1C(=O)N[C@@H](CCC(N)=O)C(=O)N[C@@H](CCCNC(=N)N)C(=O)N1CCC[C@H]1C(=O)N[C@@H](CS)C(=O)N[C@@H](CCCNC(=N)N)C(=O)NCC(=O)N[C@@H](CC(=O)O)C(=O)N[C@@H](CCCCN)C(=O)NCC(=O)N1CCC[C@H]1C(=O)N[C@@H](CC(=O)O)C(=O)N[C@@H](CS)C(N)=O [ACP52CK] (I: Ac-KGGNYPQRPCRGDKGPDC-NH2 / II: Palmitoyl-GFLGE; amide I:1-II:C),GI50 values compared with control (ACP52C),[1],like or more efficient than that of the control
same,cancer cell-specific cell death,[1],induced cancer cell-specific cell death similarly to the control group
same,anticancer efficacy,Hep3B xenograft mice; [8],"showed similar efficacy to sorafenib, but their efficacy was inferior to that of ACP52C"
same,efficacy,[7],"superior to another control, FQI1, but did not show any superior efficacy compared to ACP52C"
same,anticancer effect,[2],"showed tumor regression efficacy, but the anticancer effect was not significant"
same,immune response of sera from rabbits injected with ACP52CG and ACP52CK three times (ELISA),[3],did not induce immune responses
"CNC(=O)c1cc(Oc2ccc(NC(=O)Nc3ccc(Cl)c(C(F)(F)F)c3)cc2)ccn1 [sorafenib, reference compound]",anticancer effect compared to the control group,"[7]; mice 22 weeks after DEN treatment, 5 mg/kg tail vein 12 times at 3-day intervals",significant anticancer effect (p=0.04)
AC-VDVAD (SEQ ID NO: 11)-CHO (Ac-VDVAD-aldehyde) [caspase2 inhibitor],protein amount of MDM2p60,caspase2,decreased
same,protein amount of MDM2p90,caspase2,increased

# From patent US12605453B2, “CP2C-targeting peptide-based anticancer agent” (Industry-University Cooperation Foundation Hanyang …, priority 2019, dated 2026)
